Laboratory results as given in article PMC4780082, “Evidence for Tautomerisation of Glutamine in BLUF Blue Light Receptors by Vibrational Spectroscopy and Computational Chemistry” (Scientific Reports, 2016).

Target: T1, BlrB (Cereibacter sphaeroides, UniProt Q3IYE4)
T1 construct: full-length short BLUF protein, residues 1-140, pET28a(+), His-tag removed by thrombin, E. coli BL21(DE3) glnA knockout; unlabelled and 15N-Gln samples
Assay: light-induced FTIR difference spectroscopy of the reconstituted holoprotein
Format: binding
Conditions: FAD added for full reconstitution; flavin C4=O band of bound chromophore; pH 8.0; 20 °C

T1 sequence (Q3IYE4 entry or part of it): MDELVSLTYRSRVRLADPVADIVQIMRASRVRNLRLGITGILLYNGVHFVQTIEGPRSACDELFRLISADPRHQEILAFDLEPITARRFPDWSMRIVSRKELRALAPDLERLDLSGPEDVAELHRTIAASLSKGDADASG

Cc1cc2nc3c(=O)[nH]c(=O)nc-3n(C[C@H](O)[C@H](O)[C@H](O)COP(=O)(O)OP(=O)(O)OC[C@H]3O[C@@H](n4cnc5c(N)ncnc54)[C@H](O)[C@@H]3O)c2cc1C [flavin adenine dinucleotide]
light-induced FTIR difference spectroscopy of the reconstituted holoprotein: includes strong contributions from the C4=O stretch of flavin with an amide I band
